The nature of the series: Stability tests of doxycycline (active principle content by HPLC over time). Format: physicochemical. Conditions: for stability of doxycycline in glycerol solution as a function of time: 25° C. (FIG. 2). How it is done: The preparation in the form of an H/L emulsion containing the active principle and cyclodextrins in solution in the polyol is carried out according to the following method: • The liquid hydrophobic material/semi-solid hydrophobic material base (called phase A) is formulated by mixing in a water bath at 75° C. to make all components miscible. For the mass ratio of liquid hydrophobic material to semi-solid hydrophobic material 0/100, the semi-solid hydrophobic material is added directly to the mixer at 45° C. • The temperature of phase A is lowered to 45° C. and then phase A is transferred to the mixer whose temperature is 45° C. • The cyclodextrin is added to the polyol (called phase B) and magnetically stirred then the doxycyline hyclate is added to phase B and magnetically stirred until all components are completely dissolved, the temperature of the solution is increased to 45° C. • When phases A and B are at the same temperature, phase B is added to phase A under stirring to form an emulsion. • The emulsion is stirred for 30 minutes at 700 rpm at 45° C. and then the temperature of the entire mixture is reduced to 37° C. • The resulting emulsion is packaged and cooled to room temperature. In order to assay of the active principle in the formulation, the following extraction is carried out: • 1.0 g of the formula is diluted in 10.0 g of water and stirred with a suitable stirring system for 30 minutes at 45° C. • After filtration with a nylon filter at 0.45 μm, a dilution in the mobile phase is performed for a high-performance liquid chromatography assay. The active principle content is determined by the following high-performance liquid chromatography method: • Column: XTerra® RP 8 5 μm 4.6×250 mm • Mobile phase: • 65% water containing 0.13% oxalic acid • 22% acetonitrile • 13% methanol • Flow rate: 1.0 mL/min
Stability tests are performed at temperatures of 25° C. and 40° C.: […]

Consider `C[C@H]1c2cccc(O)c2C(=O)C2=C(O)[C@]3(O)C(=O)C(C(N)=O)=C(O)[C@@H](N(C)C)[C@@H]3[C@@H](O)[C@@H]21` [doxycycline], for which the “stability of doxycycline in aqueous solution as a function of time” value (0.1% aqueous solution, 25° C. and 40° C. (FIG. 1)) is on record as “rapidly degraded”. Take doxycycline hyclate: the “stability of doxycycline in glycerol solution as a function of time” value is, setting by setting: (0.1% doxycycline hyclate in glycerol with β-cyclodextrins) “no or little degradation”; (0.1% doxycycline hyclate in glycerol without β-cyclodextrins) “no or little degradation”.

The values above are taken from patent publication US11229597B2, “Topical doxycycline composition” (HORUS PHARMA, priority 2017, dated 2022).
